Results: patent publication US20260294885A1, “TREATMENT OF INFLAMMATORY CONDITIONS COMPRISING IMU-856” (IMMUNIC AG, priority 2023, published 2026)
Entries after “also recorded” stand apart in the source; their conditions may differ.

Key:
claudin (Cldn)-1 = assay: Tight junction protein claudin-1 in a TEER model; assay type: cell-based, human
Description: (§1) In one TEER model, tight junction (TJ)-related proteins were investigated, and a normalisation of TJ proteins (claudin (Cldn)-1 and claudin-2) was observed.

healthy subjects = assay: Phase I safety in healthy subjects (Parts A and B); assay type: in vivo, human
Experimental: (§2) In Part A, healthy subjects were randomised to single ascending doses of IMU-856 (10 mg to 160 mg) or placebo. In Part B healthy subjects were randomised to multiple once-daily doses of IMU-856 (40, 80, and 160 mg) or placebo for 14 days. Part C randomised patients with celiac disease who were on a gluten-free diet to multiple once-daily doses of IMU-856 (80 mg and 160 mg) or placebo for 28 days; a once-daily gluten challenge (6 g) was introduced on Day 14 and ended on Day 28. 71 healthy subjects were enrolled in Part A and B (N=19 placebo and N=52 IMU-856) and 43 patients with CelD in Part C (N=14 placebo; N=14 for 80 mg, and N=15 for 160 mg). In Parts A and B, treatment-emergent adverse events (TEAEs) occurred in 24 (73%) and 15 (79%) of subjects receiving any dose of IMU-856 compared to 6 (50%) and 5 (71%) with placebo, respectively. […] In Part C, the most common adverse events with any dose of IMU-856 by preferred term were headache (13 [45%]), nausea (9 [31%]), diarrhoea (8 [28%]), and abdominal distension (7 [24%]). […] In Part C, the mean change in villous height from baseline to Day 29 with 80 mg and 160 mg was −20.9±34.8 μm, and −22.5±51.1 μm, respectively, and −60.3±52.2 μm with placebo. […] Mean change in plasma citrulline increased with 80 mg and 160 mg from baseline to Day 14 (2.4±6.2 and 6.1±5.9 μmol/L, respectively) and from baseline to Day 29 (2.8±7.6 and 2.2±5.3 μmol/L, respectively), but not with placebo (−2.7±5.6 and −4.0±6.5 μmol/L). […] Mean increase in zinc levels from baseline to Day 29 with 80 mg and 160 mg were 0.3±1.4 and 0.9±2.1 μmol/L compared to a mean decrease in placebo (−0.9±2.1 μmol/L). Gluten-induced symptoms were also attenuated by IMU-856.

SIRT6 = SIRT6 (Homo sapiens, UniProt Q8N6T7); assay: SIRT6 deacetylation of acetylated H3K56 in a cellular system; assay type: cell-based
SIRT6, sequence (Q8N6T7 whole entry): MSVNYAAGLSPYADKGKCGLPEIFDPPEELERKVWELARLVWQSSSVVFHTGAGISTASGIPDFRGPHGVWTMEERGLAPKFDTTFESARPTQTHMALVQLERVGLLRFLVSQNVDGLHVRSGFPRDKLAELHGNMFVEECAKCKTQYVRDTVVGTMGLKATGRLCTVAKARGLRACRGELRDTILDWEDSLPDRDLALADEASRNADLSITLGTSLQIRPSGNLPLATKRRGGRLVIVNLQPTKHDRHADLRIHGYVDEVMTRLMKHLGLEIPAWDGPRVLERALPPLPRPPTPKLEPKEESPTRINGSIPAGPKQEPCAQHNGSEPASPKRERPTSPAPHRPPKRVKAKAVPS

[1] = tested on: patients with celiac disease; assay: Duodenal biopsy histology with gluten challenge (villous height, Vh:Cd, Q-MARSH), Part C; assay type: in vivo, human; conditions: for reduction in villous height: two weeks of 6 g/day gluten challenge; for mean change in villous height: baseline to Day 29, gluten challenge 6 g/day
Experimental: as §2
(§3) FIG. 1 illustrates the flow chart of part C in celiac disease (CelD) designed as proof-of-concept study with a gluten challenge trial. Part C was planned to include a well-controlled celiac disease patient population: The patients were 100% seronegative, indicating absence of ongoing substantial gluten exposure and was performed at sites in Australia and New Zealand. Part C was designed to assess safety, tolerability and pharmacokinetics of IMU-856 and measured also histologic changes, blood biomarkers, nutrient uptake and disease-related symptoms.

[2] = Clinical pharmacokinetics; assay type: in vivo, human
Experimental: as §2

[3] = tested on: other members of the human SIRT protein family; assay: Selectivity over other members of the SIRT family; assay type: biochemical
[4] = tested on: patients with celiac disease; assay: Phase Ib safety in patients with celiac disease (Part C); assay type: in vivo, human
Experimental: as §2, §3

[5] = tested on: sirtuin 6 protein (SIRT6); assay: SIRT6 protein stabilization
claudin-2 = assay: Tight junction protein claudin-2 in a TEER model; assay type: cell-based, human
Description: as §1

CaCo2 cells = assay: In vitro intestinal barrier function model (TEER, Example 2); assay type: cell-based, human; conditions: compared to vehicle control, after 4 h chemical challenge
Description: CaCo2 cell line is derived from human epithelial cells from the colon. They are frequently used to mimic intestinal barrier function to either look at permeability of drugs or to look at is functional resistance. For the present experiment, the CaCo2 cells were used to mimic the loss of its barrier function upon challenging the cells with [COMPOUND LEFT OUT] sulfonic acid [COMPOUND LEFT OUT] and investigate the effect of IMU-856 on this by measuring the electrical transepithelial resistance (TEER). […] For this CaCo2 cells, cultivated in a 6-well trans well plate on top of the membrane that has small pores that prevent the cells from going through but allow molecules and nutrients to pass. After 3 weeks, when the TEER is stable, the monolayer is challenged with 0.25% [COMPOUND LEFT OUT] stimulation for 4 h. Then, cells were washed and fresh medium with vehicle or IMU-856 was given. TEER was measured before and after challenge at different time points. For correct measurement, the shorter electrode is inserted into the transwell chamber (without touching the cells), and the longer electrode is inserted in the outer well.

plasma citrulline = assay: Plasma citrulline, Part C; assay type: in vivo, human
Experimental: as §2
Also, biomarker response upon treatment of CelD with IMU-856 was assessed. […] A wide inter-individual range of IL-2 response leads to large SD, especially in the placebo group. […]

[6] = Part A, any single dose (10 mg to 160 mg)
[7] = Part B, any dose (40, 80, 160 mg once daily, 14 days)

## Cn1c(COc2cc(C(F)(F)F)ccn2)nnc1[C@H]1CC[C@H](c2cnn([C@H]3CC[C@H](N4CC5(CCO5)C4)CC3)c2)CC1 [IMU-856, 6-(trans-4-(4-(trans-4-(4-methyl-5-(((4-(trifluoromethyl)pyridin-2-yl)oxy)methyl)-4H-1,2,4-triazol-3-yl)cyclohexyl)-1H-pyrazol-1-yl)cyclohexyl)-1-oxa-6-azaspiro[3.3]heptane]
Claudin (Cldn)-1
  claudin-1: normalisation
Healthy subjects; [6]
  subjects with TEAEs (number): 24
  subjects with TEAEs (percentage): 73%
Healthy subjects; Part B
  serious adverse events: 1
Healthy subjects; [7]
  subjects with TEAEs (number): 15
  subjects with TEAEs (percentage): 79%
Healthy subjects; Parts A and B
  severity of TEAEs: mild in severity
SIRT6
  deacetylation of H3K56: prevents the deacetylation
[1]; 80 mg (N=11)
  reduction in villous height: 20.9 μm
[1]; 80 mg once daily
  mean change in villous height: −20.9±34.8 μm
[1]; 160 mg (N=13)
  reduction in villous height: 22.5 μm
[1]; 160 mg once daily
  mean change in villous height: −22.5±51.1 μm
[1]; Baseline to Day 29
  villous height protection versus placebo: protects villous height as compared to placebo, reaching statistical significance
[1]; Day 29, after gluten challenge
  patients with improvement in one Q-MARSH category: two and Two
[1]; change in Q-MARSH score between Baseline and Day 29
  Q-MARSH histological damage: signals of preventing histological damage
[2]; daily dosing
  accumulation factor: low accumulation factor
  steady-state plasma concentrations, time to achievement: within the first week
[2]; human, plasma, steady-state
  half-life: 17.4 to 21.5 h
[2]; human, plasma, steady-state, post-dose
  Tmax: 2 to 3 h
[2]; over the 14-day treatment period
  steady-state trough levels: stable steady-state trough levels
[2]; steady-state
  AUC dose dependence: dose proportional increases
  Cmax dose dependence: dose proportional increases
[3]
  selectivity for SIRT6 over other SIRT family members: highly selective for SIRT6
[4]
  serious adverse events: 1
[4]; any dose
  abdominal distension (number): 7
  abdominal distension (percentage): 24%
  diarrhoea (number): 8
  diarrhoea (percentage): 28%
  headache (number): 13
  headache (percentage): 45%
  nausea (number): 9
  nausea (percentage): 31%
[5]
  stabilization of sirtuin 6 protein: stabilizer
claudin-2
  claudin-2: normalisation
CaCo2 cells
  TEER: higher TEER
  TEER recovery rate: higher recovery rate
Plasma citrulline; 80 mg, baseline to Day 14
  mean change in plasma citrulline: 2.4 ± 6.2 µmol/L
Plasma citrulline; 160 mg, baseline to Day 29
  mean change in plasma citrulline: 2.2 ± 5.3 µmol/L
Plasma citrulline; in words
  citrulline levels: increased citrulline levels dose proportionally; also recorded: increased in both active treatment arms
